# According to EP0319030A1, “Aminopropanol derivatives of 1,4:3,6-dianhydro-hexitol nitrates, processes for their preparation and their use as medicaments” (Heinrich Mack Nachf., priority 1987, dated 1989):
# Marks after values point to notes of the source that are not given here.
# Columns and labels:
# Format in all cases: in vivo
# [1] = system: Mice; experiment: Peroral tolerance in mice; conditions: mouse, in vivo
# Text: Set forth below is data obtained on the compounds of Examples 17, 19 and 20 that illustrates the pharmacological action of the compounds of the present invention.
# [2] = system: anesthetized rat; experiment: Lypressin-induced T-wave increase in the ECG (lypressin coronary spasm), method of M. Leitold et al.
# Text: (§1) In particular, they have a pronounced cardiovascular action. On isolated strips of veins from dogs, they act against the K⁺-induced contraction in a lower concentration than on aorta strips. On isolated hearts from guinea pigs, they increase coronary flow as a function of the dose. On anesthetized rats, they prevent lypressin coronary spasm as a function of the dose and significiantly increase the survival rate of rats following acute cardiac infarction. On normotensive conscious dogs, they lower the systolic blood pressure for a period of 6-8 hours after oral administration. On artifically respirated anesthetized, thoraxotomized dogs, they reduce the mean arterial pressure, the left ventricular systolic pressure, the left ventricular end diastolic pressure and the pressure in the Arteria pulmonalis and reduce the peripheral vascular resistance. In contrast to the known organic nitrate esters, they also lead to a long-lasting reduction in the systolic blood pressure of spontaneously hypertensive rats. Such an action profile is not known for any of the substances of similar structure which have already been described.
# [3] = system: rats; experiment: Survival rate after acute coronary ligature, method of I. Lepran et al.; conditions: 100.0 mg/kg orally 5 minutes before ligature
# Text: as §1
# [4] = system: anesthetized dogs; experiment: Cardiovascular actions following intra-venous administration, opened thorax and artificial respiration; conditions: opened thorax, artificial respiration
# Text: as §1
# [5] = system: conscious beagle dogs; experiment: Systolic blood pressure and heart rate following peroral administration; conditions: 5.0 mg/kg peroral, mean ± SEM
# Text: as §1
structure (smiles),measurement,setting,value
"COc1ccccc1N1CCN(CC(O)CO[C@H]2CO[C@H]3[C@@H]2OC[C@@H]3O[N+](=O)[O-])CC1 (some centres unmarked) [Example 20, 5-O-<3-[4-(2-Methoxyphenyl)-piprazinyl]-2-hydroxypropyl>-isoidide-2-nitrate]","tolerance (clinical symptoms, fatal consequences)",[1],without clinical symptoms and without fatal consequences
same,ED50,"[2]; Rattus norvegicus, po, 0.5 h, perorally 30 minutes before the lypressin injection, dose column in mg/kg",73.8 mg/kg
same,Duration of action at the ED50 dose,[2]; perorally at various times before the lypressin injection,4 h
same,"Number of rats surviving after an acute coronary ligature, 24 hours",[3]; control 21/80,14/20*
same,"Number of rats surviving after an acute coronary ligature, 7 days",[3]; control 21/80,14/20*
same,"Number of rats surviving after an acute coronary ligature, 60 minutes",[3]; control 23/80,14/20*
same,"CO, Action of substance",[4]; 30 µg/kg intra-venous,0.81 ± 0.3 l/M
same,"CO, Change",[4]; 30 µg/kg intra-venous,0.38 ± 0.1 l/M
same,"CO, Duration of action",[4]; 30 µg/kg intra-venous,12 ± 6 min
same,"HR (heart rate), Action of substance",[4]; 30 µg/kg intra-venous,192 ± 10 Bts/M
same,"HR (heart rate), Change",[4]; 30 µg/kg intra-venous,2 ± 2 Bts/M
same,"HR (heart rate), Duration of action",[4]; 30 µg/kg intra-venous,11 ± 4 min
same,"LVEDP (left ventricular enddiastolic pressure), Action of substance",[4]; 30 µg/kg intra-venous,7.5 ± 1.2 mmHg
same,"LVEDP (left ventricular enddiastolic pressure), Change",[4]; 30 µg/kg intra-venous,0.1 ± 0.2 mmHg
same,"LVEDP (left ventricular enddiastolic pressure), Duration of action",[4]; 30 µg/kg intra-venous,9 ± 7 min
same,"LVSP (left ventricular systolic blood pressure), Action of substance",[4]; 30 µg/kg intra-venous,116 ± 10 mmHg
same,"LVSP (left ventricular systolic blood pressure), Change",[4]; 30 µg/kg intra-venous,22 ± 4 mmHg
same,"LVSP (left ventricular systolic blood pressure), Duration of action",[4]; 30 µg/kg intra-venous,8 ± 3 min
same,"MAP (mean arterial blood pressure), Action of substance",[4]; 30 µg/kg intra-venous,66 ± 3 mmHg
same,"MAP (mean arterial blood pressure), Change",[4]; 30 µg/kg intra-venous,25 ± 5 mmHg
same,"MAP (mean arterial blood pressure), Duration of action",[4]; 30 µg/kg intra-venous,15 ± 2 min
same,"PAP, Action of substance",[4]; 30 µg/kg intra-venous,16.0 ± 1 mmHg
same,"PAP, Change",[4]; 30 µg/kg intra-venous,0.4 ± 0.2 mmHg
same,"PAP, Duration of action",[4]; 30 µg/kg intra-venous,11 ± 6 min
same,"SV, Action of substance",[4]; 30 µg/kg intra-venous,7.5 ± 2 mL/s
same,"SV, Change",[4]; 30 µg/kg intra-venous,2.3 ± 1 mL/s
same,"SV, Duration of action",[4]; 30 µg/kg intra-venous,12 ± 6 min
same,"TPR (total peripheral vascular resistance), Action of substance",[4]; 30 µg/kg intra-venous,63 ± 13 mmHg/ml
same,"TPR (total peripheral vascular resistance), Change",[4]; 30 µg/kg intra-venous,2 ± 13 mmHg/ml
same,"TPR (total peripheral vascular resistance), Duration of action",[4]; 30 µg/kg intra-venous,4 ± 2 min
same,"dp/dtmax (maximum rate of increase in the left ventricular pressure), Action of substance",[4]; 30 µg/kg intra-venous,2321 ± 363 mmHg/s
same,"dp/dtmax (maximum rate of increase in the left ventricular pressure), Change",[4]; 30 µg/kg intra-venous,758 ± 269 mmHg/s
same,"dp/dtmax (maximum rate of increase in the left ventricular pressure), Duration of action",[4]; 30 µg/kg intra-venous,15 ± 4 min
same,"CO, Action of substance",[4]; 300 µg/kg intra-venous,1.32 ± 0.7 l/M
same,"CO, Change",[4]; 300 µg/kg intra-venous,0.21 ± 0.6 l/M
same,"CO, Duration of action",[4]; 300 µg/kg intra-venous,35 ± 23 min
same,"HR (heart rate), Action of substance",[4]; 300 µg/kg intra-venous,197 ± 12 Bts/M
same,"LVEDP (left ventricular enddiastolic pressure), Action of substance",[4]; 300 µg/kg intra-venous,6.8 ± 1 mmHg
same,"LVEDP (left ventricular enddiastolic pressure), Change",[4]; 300 µg/kg intra-venous,1.1 ± 1 mmHg
same,"LVEDP (left ventricular enddiastolic pressure), Duration of action",[4]; 300 µg/kg intra-venous,18 ± 13 min
same,"LVSP (left ventricular systolic blood pressure), Action of substance",[4]; 300 µg/kg intra-venous,111 ± 11 mmHg
same,"LVSP (left ventricular systolic blood pressure), Change",[4]; 300 µg/kg intra-venous,34 ± 5 mmHg
same,"LVSP (left ventricular systolic blood pressure), Duration of action",[4]; 300 µg/kg intra-venous,34 ± 12 min
same,"MAP (mean arterial blood pressure), Action of substance",[4]; 300 µg/kg intra-venous,58 ± 2 mmHg
same,"MAP (mean arterial blood pressure), Change",[4]; 300 µg/kg intra-venous,39 ± 3 mmHg
same,"MAP (mean arterial blood pressure), Duration of action",[4]; 300 µg/kg intra-venous,35 ± 15 min
same,"PAP, Action of substance",[4]; 300 µg/kg intra-venous,15.7 ± 1 mmHg
same,"PAP, Change",[4]; 300 µg/kg intra-venous,0.7 ± 0.3 mmHg
same,"PAP, Duration of action",[4]; 300 µg/kg intra-venous,14 ± 13 min
same,"SV, Action of substance",[4]; 300 µg/kg intra-venous,7.2 ± 2.5 mL/s
same,"SV, Change",[4]; 300 µg/kg intra-venous,0.5 ± 2.9 mL/s
same,"SV, Duration of action",[4]; 300 µg/kg intra-venous,33 ± 23 min
same,"TPR (total peripheral vascular resistance), Action of substance",[4]; 300 µg/kg intra-venous,35 ± 6 mmHg/ml
same,"TPR (total peripheral vascular resistance), Change",[4]; 300 µg/kg intra-venous,39 ± 9 mmHg/ml
same,"TPR (total peripheral vascular resistance), Duration of action",[4]; 300 µg/kg intra-venous,6 ± 2 min
same,"dp/dtmax (maximum rate of increase in the left ventricular pressure), Action of substance",[4]; 300 µg/kg intra-venous,2056 ± 385 mmHg/s
same,"dp/dtmax (maximum rate of increase in the left ventricular pressure), Change",[4]; 300 µg/kg intra-venous,1053 ± 333 mmHg/s
same,"dp/dtmax (maximum rate of increase in the left ventricular pressure), Duration of action",[4]; 300 µg/kg intra-venous,36 ± 11 min
same,"CO, Action of substance",[4]; 3000 µg/kg intra-venous,2.02 ± 0.8 l/M
same,"CO, Change",[4]; 3000 µg/kg intra-venous,0.87 ± 0.7 l/M
same,"CO, Duration of action",[4]; 3000 µg/kg intra-venous,3 ± 0.4 min
same,"HR (heart rate), Action of substance",[4]; 3000 µg/kg intra-venous,169 ± 34 Bts/M
same,"HR (heart rate), Change",[4]; 3000 µg/kg intra-venous,30 ± 15 Bts/M
same,"HR (heart rate), Duration of action",[4]; 3000 µg/kg intra-venous,80 ± 44 min
same,"LVEDP (left ventricular enddiastolic pressure), Action of substance",[4]; 3000 µg/kg intra-venous,2.7 ± 3.8 mmHg
same,"LVEDP (left ventricular enddiastolic pressure), Change",[4]; 3000 µg/kg intra-venous,2.3 ± 1.7 mmHg
same,"LVEDP (left ventricular enddiastolic pressure), Duration of action",[4]; 3000 µg/kg intra-venous,104 ± 51 min
same,"LVSP (left ventricular systolic blood pressure), Action of substance",[4]; 3000 µg/kg intra-venous,98 ± 21 mmHg
same,"LVSP (left ventricular systolic blood pressure), Change",[4]; 3000 µg/kg intra-venous,55 ± 15 mmHg
same,"LVSP (left ventricular systolic blood pressure), Duration of action",[4]; 3000 µg/kg intra-venous,128 ± 12 min
same,"MAP (mean arterial blood pressure), Action of substance",[4]; 3000 µg/kg intra-venous,56 ± 2 mmHg
same,"MAP (mean arterial blood pressure), Change",[4]; 3000 µg/kg intra-venous,45 ± 5 mmHg
same,"MAP (mean arterial blood pressure), Duration of action",[4]; 3000 µg/kg intra-venous,118 ± 20 min
same,"PAP, Action of substance",[4]; 3000 µg/kg intra-venous,14.6 ± 1 mmHg
same,"PAP, Change",[4]; 3000 µg/kg intra-venous,1.1 ± 0.3 mmHg
same,"PAP, Duration of action",[4]; 3000 µg/kg intra-venous,> 177 min
same,"SV, Action of substance",[4]; 3000 µg/kg intra-venous,10.6 ± 3.3 mL/s
same,"SV, Change",[4]; 3000 µg/kg intra-venous,50 ± 0.7 mL/s
same,"SV, Duration of action",[4]; 3000 µg/kg intra-venous,4 ± 0.0 min
same,"TPR (total peripheral vascular resistance), Action of substance",[4]; 3000 µg/kg intra-venous,24 ± 7 mmHg/ml
same,"TPR (total peripheral vascular resistance), Change",[4]; 3000 µg/kg intra-venous,56 ± 7 mmHg/ml
same,"TPR (total peripheral vascular resistance), Duration of action",[4]; 3000 µg/kg intra-venous,27 ± 21 min
same,"dp/dtmax (maximum rate of increase in the left ventricular pressure), Action of substance",[4]; 3000 µg/kg intra-venous,1977 ± 537 mmHg/s
same,"dp/dtmax (maximum rate of increase in the left ventricular pressure), Change",[4]; 3000 µg/kg intra-venous,1395 ± 263 mmHg/s
same,"dp/dtmax (maximum rate of increase in the left ventricular pressure), Duration of action",[4]; 3000 µg/kg intra-venous,> 148 min
same,"HR (heart rate), Action of substance after 1 hours",[5],98 ± 7 Bts/M
same,"HR (heart rate), Action of substance after 2 hours",[5],109 ± 10 Bts/M
same,"HR (heart rate), Action of substance after 4 hours",[5],82 ± 7 Bts/M
same,"HR (heart rate), Action of substance after 6 hours",[5],78 ± 6 Bts/M
same,"HR (heart rate), Action of substance after 8 hours",[5],77 ± 6 Bts/M
same,"SBP (systolic blood pressure), Action of substance after 1 hours",[5],97 ± 8 mmHg
same,"SBP (systolic blood pressure), Action of substance after 2 hours",[5],95 ± 6 mmHg
same,"SBP (systolic blood pressure), Action of substance after 4 hours",[5],106 ± 4 mmHg
same,"SBP (systolic blood pressure), Action of substance after 6 hours",[5],113 ± 4 mmHg
same,"SBP (systolic blood pressure), Action of substance after 8 hours",[5],121 ± 3 mmHg
